Assay results taken from ChEMBL document CHEMBL3879902, “Compounds and methods for kinase modulation, and indications thereof” (2012).

experiment: Aqueous solubility of the compound in simulated intestinal fluid at pH 4.5; type: ADME; conditions: simulated gi fluid

| Structure (SMILES) | solubility |
| --- | --- |
| CCCS(=O)(=O)Nc1ccc(F)c(C(=O)c2c[nH]c3ncc(-c4ccc(OCCCN5CCCC5)nc4)cc23)c1F | Soluble |
| CCCS(=O)(=O)Nc1ccc(F)c(C(=O)c2c[nH]c3ncc(-c4ccc(S(=O)(=O)N(C)C)cc4)cc23)c1F | Insoluble |
| N#Cc1cnc2[nH]cc(C(=O)c3cccc(NS(=O)(=O)c4ccccc4F)c3F)c2c1 | Soluble |
| CCCS(=O)(=O)Nc1ccc(F)c(C(=O)c2c[nH]c3ncc(-c4ccc(C#CCN(CC)CC)nc4)cc23)c1F | Insoluble |
| CCCS(=O)(=O)Nc1ccc(F)c(C(=O)c2c[nH]c3ncc(-c4ccc(NS(C)(=O)=O)cc4)cc23)c1F | Insoluble |
| CCCS(=O)(=O)Nc1ccc(F)c(C(=O)c2c[nH]c3ncc(-c4ccc(S(=O)(=O)NC5CC5)cc4)cc23)c1F | Insoluble |
| CCCS(=O)(=O)Nc1ccc(F)c(C(=O)c2c[nH]c3ncc(-c4ccc(N5CCCC5)nc4)cc23)c1F | Insoluble |
| N#Cc1cnc2[nH]cc(C(=O)c3cccc(NS(=O)(=O)c4cccc(F)c4)c3F)c2c1 | Insoluble |

More lines, now with the values ahead:

| solubility | Structure (SMILES) |
| --- | --- |
| Insoluble | COc1ncc(-c2cnc3[nH]cc(C(=O)c4c(F)ccc(NS(=O)(=O)c5ccccc5F)c4F)c3c2)cn1 |
| Soluble | O=C(c1c(F)ccc(NS(=O)(=O)c2cccc(F)c2)c1F)c1c[nH]c2nccc(Cl)c12 |
| Insoluble | Cc1cnc2[nH]cc(C(=O)c3c(F)ccc(NS(=O)(=O)c4cc(F)ccc4F)c3F)c2c1 |
| Soluble | O=C(c1c(F)ccc(NS(=O)(=O)c2cccnc2)c1F)c1c[nH]c2ncc(Cl)cc12 |
| Soluble | COc1ccnc2[nH]cc(C(=O)c3c(F)ccc(NS(=O)(=O)c4ccccc4F)c3F)c12 |
| Soluble | COc1ccnc2[nH]cc(C(=O)c3c(F)ccc(NS(=O)(=O)c4cc(F)ccc4F)c3F)c12 |
| Insoluble | O=C(c1c(F)ccc(NS(=O)(=O)c2cc(F)ccc2F)c1F)c1c[nH]c2ncc(Cl)cc12 |
| Insoluble | COc1ncc(-c2cnc3[nH]cc(C(=O)c4c(F)ccc(NS(=O)(=O)c5cc(F)ccc5F)c4F)c3c2)cn1 |

experiment: Aqueous solubility of the compound in simulated intestinal fluid at pH 6.8; type: ADME; conditions: simulated gi fluid

| Structure (SMILES) | solubility |
| --- | --- |
| CCCS(=O)(=O)Nc1ccc(F)c(C(=O)c2c[nH]c3ncc(-c4ccc(OCCCN5CCCC5)nc4)cc23)c1F | Insoluble |
| CCCS(=O)(=O)Nc1ccc(F)c(C(=O)c2c[nH]c3ncc(-c4ccc(S(=O)(=O)N(C)C)cc4)cc23)c1F | Insoluble |
| N#Cc1cnc2[nH]cc(C(=O)c3cccc(NS(=O)(=O)c4ccccc4F)c3F)c2c1 | Soluble |
| CCCS(=O)(=O)Nc1ccc(F)c(C(=O)c2c[nH]c3ncc(-c4ccc(C#CCN(CC)CC)nc4)cc23)c1F | Insoluble |
| CCCS(=O)(=O)Nc1ccc(F)c(C(=O)c2c[nH]c3ncc(-c4ccc(NS(C)(=O)=O)cc4)cc23)c1F | Insoluble |
| CCCS(=O)(=O)Nc1ccc(F)c(C(=O)c2c[nH]c3ncc(-c4ccc(S(=O)(=O)NC5CC5)cc4)cc23)c1F | Insoluble |
| CCCS(=O)(=O)Nc1ccc(F)c(C(=O)c2c[nH]c3ncc(-c4ccc(N5CCCC5)nc4)cc23)c1F | Insoluble |
| N#Cc1cnc2[nH]cc(C(=O)c3cccc(NS(=O)(=O)c4cccc(F)c4)c3F)c2c1 | Soluble |

Continued, values first:

| solubility | Structure (SMILES) |
| --- | --- |
| Insoluble | COc1ncc(-c2cnc3[nH]cc(C(=O)c4c(F)ccc(NS(=O)(=O)c5ccccc5F)c4F)c3c2)cn1 |
| Soluble | O=C(c1c(F)ccc(NS(=O)(=O)c2cccc(F)c2)c1F)c1c[nH]c2nccc(Cl)c12 |
| Soluble | Cc1cnc2[nH]cc(C(=O)c3c(F)ccc(NS(=O)(=O)c4cc(F)ccc4F)c3F)c2c1 |
| Soluble | O=C(c1c(F)ccc(NS(=O)(=O)c2cccnc2)c1F)c1c[nH]c2ncc(Cl)cc12 |
| Soluble | COc1ccnc2[nH]cc(C(=O)c3c(F)ccc(NS(=O)(=O)c4ccccc4F)c3F)c12 |
| Soluble | COc1ccnc2[nH]cc(C(=O)c3c(F)ccc(NS(=O)(=O)c4cc(F)ccc4F)c3F)c12 |
| Soluble | O=C(c1c(F)ccc(NS(=O)(=O)c2cc(F)ccc2F)c1F)c1c[nH]c2ncc(Cl)cc12 |
| Insoluble | COc1ncc(-c2cnc3[nH]cc(C(=O)c4c(F)ccc(NS(=O)(=O)c5cc(F)ccc5F)c4F)c3c2)cn1 |

experiment: Aqueous solubility of the compound in hepes buffer at pH 7.4; type: physicochemical; conditions: not given

| Structure (SMILES) | solubility |
| --- | --- |
| CCCS(=O)(=O)Nc1ccc(F)c(C(=O)c2c[nH]c3ncc(-c4ccc(OCCCN5CCCC5)nc4)cc23)c1F | Insoluble |
| CCCS(=O)(=O)Nc1ccc(F)c(C(=O)c2c[nH]c3ncc(-c4ccc(S(=O)(=O)N(C)C)cc4)cc23)c1F | Insoluble |
| N#Cc1cnc2[nH]cc(C(=O)c3cccc(NS(=O)(=O)c4ccccc4F)c3F)c2c1 | Soluble |
| CCCS(=O)(=O)Nc1ccc(F)c(C(=O)c2c[nH]c3ncc(-c4ccc(C#CCN(CC)CC)nc4)cc23)c1F | Insoluble |
| CCCS(=O)(=O)Nc1ccc(F)c(C(=O)c2c[nH]c3ncc(-c4ccc(NS(C)(=O)=O)cc4)cc23)c1F | Insoluble |
| CCCS(=O)(=O)Nc1ccc(F)c(C(=O)c2c[nH]c3ncc(-c4ccc(S(=O)(=O)NC5CC5)cc4)cc23)c1F | Insoluble |
| CCCS(=O)(=O)Nc1ccc(F)c(C(=O)c2c[nH]c3ncc(-c4ccc(N5CCCC5)nc4)cc23)c1F | Insoluble |
| N#Cc1cnc2[nH]cc(C(=O)c3cccc(NS(=O)(=O)c4cccc(F)c4)c3F)c2c1 | Soluble |

The next lines start with the values.

| solubility | Structure (SMILES) |
| --- | --- |
| Insoluble | COc1ncc(-c2cnc3[nH]cc(C(=O)c4c(F)ccc(NS(=O)(=O)c5ccccc5F)c4F)c3c2)cn1 |
| Soluble | O=C(c1c(F)ccc(NS(=O)(=O)c2cccc(F)c2)c1F)c1c[nH]c2nccc(Cl)c12 |
| Soluble | Cc1cnc2[nH]cc(C(=O)c3c(F)ccc(NS(=O)(=O)c4cc(F)ccc4F)c3F)c2c1 |
| Soluble | O=C(c1c(F)ccc(NS(=O)(=O)c2cccnc2)c1F)c1c[nH]c2ncc(Cl)cc12 |
| Soluble | COc1ccnc2[nH]cc(C(=O)c3c(F)ccc(NS(=O)(=O)c4ccccc4F)c3F)c12 |
| Soluble | COc1ccnc2[nH]cc(C(=O)c3c(F)ccc(NS(=O)(=O)c4cc(F)ccc4F)c3F)c12 |
| Soluble | O=C(c1c(F)ccc(NS(=O)(=O)c2cc(F)ccc2F)c1F)c1c[nH]c2ncc(Cl)cc12 |
| Insoluble | COc1ncc(-c2cnc3[nH]cc(C(=O)c4c(F)ccc(NS(=O)(=O)c5cc(F)ccc5F)c4F)c3c2)cn1 |

experiment: Aqueous solubility of the compound in simulated gastric fluid at pH 1.5; type: ADME; conditions: simulated gi fluid

| Structure (SMILES) | solubility |
| --- | --- |
| CCCS(=O)(=O)Nc1ccc(F)c(C(=O)c2c[nH]c3ncc(-c4ccc(OCCCN5CCCC5)nc4)cc23)c1F | Insoluble |
| CCCS(=O)(=O)Nc1ccc(F)c(C(=O)c2c[nH]c3ncc(-c4ccc(S(=O)(=O)N(C)C)cc4)cc23)c1F | Insoluble |
| N#Cc1cnc2[nH]cc(C(=O)c3cccc(NS(=O)(=O)c4ccccc4F)c3F)c2c1 | Soluble |
| CCCS(=O)(=O)Nc1ccc(F)c(C(=O)c2c[nH]c3ncc(-c4ccc(C#CCN(CC)CC)nc4)cc23)c1F | Insoluble |
| CCCS(=O)(=O)Nc1ccc(F)c(C(=O)c2c[nH]c3ncc(-c4ccc(NS(C)(=O)=O)cc4)cc23)c1F | Insoluble |
| CCCS(=O)(=O)Nc1ccc(F)c(C(=O)c2c[nH]c3ncc(-c4ccc(S(=O)(=O)NC5CC5)cc4)cc23)c1F | Insoluble |
| CCCS(=O)(=O)Nc1ccc(F)c(C(=O)c2c[nH]c3ncc(-c4ccc(N5CCCC5)nc4)cc23)c1F | Insoluble |
| N#Cc1cnc2[nH]cc(C(=O)c3cccc(NS(=O)(=O)c4cccc(F)c4)c3F)c2c1 | Insoluble |

Second part, the molecule after the results:

| solubility | Structure (SMILES) |
| --- | --- |
| Insoluble | COc1ncc(-c2cnc3[nH]cc(C(=O)c4c(F)ccc(NS(=O)(=O)c5ccccc5F)c4F)c3c2)cn1 |
| Insoluble | O=C(c1c(F)ccc(NS(=O)(=O)c2cccc(F)c2)c1F)c1c[nH]c2nccc(Cl)c12 |
| Soluble | Cc1cnc2[nH]cc(C(=O)c3c(F)ccc(NS(=O)(=O)c4cc(F)ccc4F)c3F)c2c1 |
| Soluble | O=C(c1c(F)ccc(NS(=O)(=O)c2cccnc2)c1F)c1c[nH]c2ncc(Cl)cc12 |
| Soluble | COc1ccnc2[nH]cc(C(=O)c3c(F)ccc(NS(=O)(=O)c4ccccc4F)c3F)c12 |
| Soluble | COc1ccnc2[nH]cc(C(=O)c3c(F)ccc(NS(=O)(=O)c4cc(F)ccc4F)c3F)c12 |
| Insoluble | O=C(c1c(F)ccc(NS(=O)(=O)c2cc(F)ccc2F)c1F)c1c[nH]c2ncc(Cl)cc12 |
| Insoluble | COc1ncc(-c2cnc3[nH]cc(C(=O)c4c(F)ccc(NS(=O)(=O)c5cc(F)ccc5F)c4F)c3c2)cn1 |
